Series [1] deals with T1, rat recombinant D3 receptors expressed in Sf9 cells (Rattus norvegicus, UniProt P19020).
T1 construct: purchased Research Biochemical International D-181; host or cells: Sf9 cells
Briefly: D3 receptor binding ([3H]-spiperone). Conditions: [3H]-spiperone 0.4 nM; non-specific binding with haloperidol 10 μM. As to the method:
Binding study was carried out on rat recombinant D3 receptors expressed in Sf9 cells using [^3H]-spiperone (0.4 nM) as ligand and haloperidol (10 μM) for determination of non-specific binding.

Series [2] has as its target T2, D2 receptor, rat striatal tissue (Rattus norvegicus, UniProt P61169).
T2 construct: from tissue; host or cells: rat striatal tissue
Briefly: D2 receptor binding ([3H]-spiperone). Conditions: [3H]-spiperone 0.5 nM, non-specific binding with (±)-sulpiride 10 μM. As to the method: Binding of [^3H]-spiperone (0.5 nM) to rat striatal tissue was measured according to the method of Seeman (J. Neurochem., 1984, 43 221-235). The non-specific binding was determined in the presence of (±)-sulpiride (10 μM).

Counter-ions that a name gives are not always drawn.

As a reminder, the melting point is the temperature, or range, at which the solid turns liquid. As usually defined, the IC50 is the concentration needed to halve the response being measured.

T1 sequence (P19020 whole entry): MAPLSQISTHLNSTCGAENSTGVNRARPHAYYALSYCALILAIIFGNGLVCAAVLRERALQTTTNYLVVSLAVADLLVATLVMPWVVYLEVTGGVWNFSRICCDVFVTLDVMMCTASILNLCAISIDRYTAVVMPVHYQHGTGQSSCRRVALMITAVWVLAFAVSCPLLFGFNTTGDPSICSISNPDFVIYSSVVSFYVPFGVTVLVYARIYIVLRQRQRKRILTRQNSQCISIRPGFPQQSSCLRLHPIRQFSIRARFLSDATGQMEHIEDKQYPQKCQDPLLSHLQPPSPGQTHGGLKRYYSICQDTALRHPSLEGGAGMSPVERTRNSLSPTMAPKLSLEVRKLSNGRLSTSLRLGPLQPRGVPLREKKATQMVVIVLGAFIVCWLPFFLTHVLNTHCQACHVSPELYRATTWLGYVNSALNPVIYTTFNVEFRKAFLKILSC
T2 sequence (P61169 whole entry): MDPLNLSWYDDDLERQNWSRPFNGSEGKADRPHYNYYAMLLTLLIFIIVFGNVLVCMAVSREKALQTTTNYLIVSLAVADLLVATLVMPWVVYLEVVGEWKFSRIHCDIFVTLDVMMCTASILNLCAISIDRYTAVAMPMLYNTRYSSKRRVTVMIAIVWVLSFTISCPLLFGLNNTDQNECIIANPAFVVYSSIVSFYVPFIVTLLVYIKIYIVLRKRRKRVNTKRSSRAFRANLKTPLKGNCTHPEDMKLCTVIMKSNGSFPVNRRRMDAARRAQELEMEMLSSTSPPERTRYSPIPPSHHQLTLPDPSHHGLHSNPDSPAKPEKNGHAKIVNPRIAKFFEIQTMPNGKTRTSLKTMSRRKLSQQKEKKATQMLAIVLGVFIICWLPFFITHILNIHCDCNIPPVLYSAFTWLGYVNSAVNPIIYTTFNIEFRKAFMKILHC

For the compound `COc1cc(-c2ccccc2)ccc1N1CCN(CC[C@H]2CC[C@H](NS(=O)(=O)N(C)C)CC2)CC1` (as salt: hydrochloride) [compound 70001488, Trans-N′-(4-{2-[4-(3-methoxy-biphenyl-4-yl)-piperazin-1-yl]-ethyl}-cyclohexyl)-N,N-dimethyl], the melting point is 243 to 246 °C.
For `CCCCS(=O)(=O)N[C@H]1CC[C@H](CCN2CCN(c3ccc(-c4ccccc4)cc3OC)CC2)CC1` [compound 70001485, Trans-N-(4-{2-[4-(3-methoxy-biphenyl-4-yl)-piperazin-1-yl]-ethyl}-cyclohexyl)-buthanesulfonamide], the IC50 in series [1] amounted to 5.5 nM; in series [2] it was 2590 nM.
In the same order, the values of `COc1cc(-c2ccccc2)ccc1N1CCN(CC[C@H]2CC[C@H](NS(=O)(=O)N(C)C)CC2)CC1` [compound 70001488, Trans-N′-(4-{2-[4-(3-methoxy-biphenyl-4-yl)-piperazin-1-yl]-ethyl}-cyclohexyl)-N,N-dimethyl] are 4.3 nM and 245 nM.
In the same order, the values of `N#Cc1cc(N2CCN(CC[C@H]3CC[C@H](NS(=O)(=O)c4ccc(Cl)cc4)CC3)CC2)cc(C(F)(F)F)c1` [compound 70001492, Trans-4-chloro-N-(4-{2-[4-(3-cyano-5-trifluoromethyl-phenyl)-piperazin-1-yl]-ethyl}-cyclohexyl)-benzenesulfonamide] are 2 nM and 65 nM.
For `CCCCS(=O)(=O)N[C@H]1CC[C@H](CCN2CCC(Nc3cccc(C(F)(F)F)c3)CC2)CC1` [compound 70001588, Trans-N-(4-{2-[4-(3-trifluoromethyl-phenylamino)-piperidin-1-yl]-ethyl}-cyclohexyl)-buthanesulfonamide], the results for the IC50 in series [1] and in series [2] were 2.5 nM and 102 nM, respectively.
On the same counts, the results for `O=S(=O)(N[C@H]1CC[C@H](CCN2CCC(Nc3cccc(C(F)(F)F)c3)CC2)CC1)c1ccc(Cl)cc1` [compound 70001589, Trans-4-chloro-N-(4-{2-[4-(3-trifluoromethyl-phenylamino)-piperidin-1-yl]-ethyl}-cyclohexyl)-benzenesulfonamide] are 3 nM and 16 nM.
Consider `CCCCS(=O)(=O)N[C@H]1CC[C@H](CCN2CCN(c3cccc(C(F)(F)F)c3)CC2)CC1` [compound 70001596, Trans-N-(4-{2-[4-(3-trifluoromethyl-phenyl)-piperazin-1-yl]-ethyl}-cyclohexyl)-buthanesulfonamide], for which the IC50 in series [1] worked out at 0.6 nM; in series [2] it was 110 nM.
In the same order, the values of `O=S(=O)(N[C@H]1CC[C@H](CCN2CCC(Cc3cccc(F)c3)CC2)CC1)c1ccc(Cl)cc1` [compound 70001686, Trans-4-chloro-N-(4-{2-[4-(3-fluoro-phenylmethyl)-piperidin-1-yl]-ethyl}-cyclohexyl)-benzenesulfonamide] are 3.9 nM and 345 nM.
Turning to `N#Cc1cc(N2CCN(CC[C@H]3CC[C@H](NS(=O)(=O)c4ccc(Cl)s4)CC3)CC2)cc(C(F)(F)F)c1` [compound 70001766, Trans-5-chloro-N-(4-{2-[4-(3-cyano-5-trifluoromethyl-phenyl)-piperazin-1-yl]-ethyl}-cyclohexyl)-2-thiophenesulfonamide], the IC50 was 5.3 nM in series [1] and 128 nM in series [2].
On to `CN(C)S(=O)(=O)N[C@H]1CC[C@H](CCN2CCN(c3cc(C#N)cc(C(F)(F)F)c3)CC2)CC1` [compound 70001788, Trans-N′-(4-{2-[4-(3-cyano-5-trifluoromethyl-phenyl)-piperazin-1-yl]-ethyl}-cyclohexyl)-N,N-dimethyl-sulfamide], for which the IC50 was determined as 1.5 nM in series [1] and 290 nM in series [2].
On to `O=S(=O)(N[C@H]1CC[C@H](CCN2CCC(Oc3cccc(C(F)(F)F)c3)CC2)CC1)c1cccnc1` [compound 70001875, Trans-N-(4-{2-[4-(3-trifluoromethyl-phenoxy)-piperidin-1-yl]-ethyl}-cyclohexyl)-3-pyridinesulfonamide], for which the IC50 in series [1] turned out to be 2.8 nM; in series [2], 66 nM.
In the case of `O=S(=O)(CCCN1CCOCC1)N[C@H]1CC[C@H](CCN2CCN(c3cccc(C(F)(F)F)c3)CC2)CC1` [compound 70001934, Trans-N-(4-{2-[4-(3-trifluoromethyl-phenyl)-piperazin-1-yl]-ethyl}-cyclohexyl)-4-morpholinepropanesulfonamide], the IC50 came to 1 nM in series [1] and 109 nM in series [2].
On the same counts, the results for `O=S(=O)(N[C@H]1CC[C@H](CCN2CCN(c3cccc(C(F)(F)F)c3)CC2)CC1)c1cccnc1` [compound 70001935, Trans-N-(4-{2-[4-(3-trifluoromethyl-phenyl)-piperazin-1-yl]-ethyl}-cyclohexyl)-3-pyridinesulfoamide] are 0.3 nM and 29 nM.

Values taken from US7473692B2, “Sulfonamide derivatives as D3-receptor ligands” (Richter Gedeon Vegyeszeti Gyar Rt., priority 2001, dated 2009).
